In experiment [1] the test system is D4585 (Arabidopsis thaliana BIO3-BIO1 P421L) containing tobacco plants. The experiment in a line: Visual herbicide damage score on transgenic tobacco D4585 (pCMP AtBioDA P421L). Type of experiment: in vivo. To be noted: 600 gai/ha; 21 DAT; one D4585 transgenic plant. The text has this:
Populations of transgenic tobacco comprising 20-30 transgenic events per plant transformation constructs were generated as described in Example 1. These lines were clonally propagated and 1 clone per event was sprayed with 600 g ai/ha compound L or A+0.2% Genapol X080 with a spray volume of 200 L/Ha (“g ai/ha” refers to grams of active compound per hectare).
Herbicidal damage was visually assessed across the population and a herbicide damage score given at 7, 14 and 21 days. A score of 0 indicates no visible damage or stunting whereas a score of 100 indicates a complete death of the plant. 20 transgenic events (i.e. individual transgenic plants) from each GM tobacco line were transplanted to soil 1 week prior to spraying with BIO3-BIO1inhibiting compounds. WT tobacco was included as a control.
To determine if overexpression of variants detailed in Example 7 confer resistance to BIO3-BIO1 inhibiting compounds when expressed in plants, GM tobacco lines were produced using the methods in Example 1 and tested with BIO3-BIO1 inhibiting compounds.
Transgenic tobacco plants expressing the Arabidopsis thaliana BIO3-BIO1 variants C388D (SEQ ID NO:26), P421L(SEQ ID NO:41), F348C (SEQ ID NO:28), G700S (SEQ ID NO:39), W392S (SEQ ID NO:70) and the Zea mays BIO3-BIO1 variant C372D (SEQ ID NO:324). Populations of transgenic tobacco were sprayed and assessed as in Example 2

Experiment [2] deals with T1, Arabidopsis thaliana BioDA variant enzymes (Arabidopsis thaliana, UniProt B0F481).
T1 construct: with the predicted N-terminal mitochondrial transit peptide removed; 6xHis-tag (N); thrombin cleavage site (N); made in house; host or cells: E. coli BL21 (DE3) bioA
The experiment is described as follows: biochemical. To be noted: WT Arabidopsis thaliana BioDA (SEQ ID NO 294); read-out: IC50. The protocol: (§1) These plasmids were then expressed in E. coli BL21 (DE3) bioA with 50 μg/mL kanamycin and 25 μg/mL chloramphenicol selection. Overnight cultures grown at 37° C. were used to inoculate 8×500 mL AIM in shake flasks at a ratio of 1:100. Cultures were grown at 37° C., 200 rpm for 3.5 hours and then overnight at 20° C. Cells were harvested by centrifugation for 30 minutes at 10 000 g. Cells were stored at −80° C. until extraction. 30 g of cell pellet from was thawed in 120 mL of IMAC buffer A (20 mM HEPES pH7.5, 25 mM imidazole, 500 mM sodium chloride, 0.15 mM pyridoxal phosphate, 0.5 mM TCEP, 1× complete Protease Inhibitor Tablet (Roche)). The resuspension was passed through a cell disrupter at 18 000 PSI and centrifuged at 50 000 g for 25 minutes at 4° C. The His-tagged BIO3-BIO1 protein was purified from the extract supernatant on an AKTA avant chromatography system (Cytiva) using a HisTrap FF column and eluted in IMAC buffer B ((20 mM HEPES pH7.5, 500 mM imidazole, 500 mM sodium chloride, 0.15 mM pyridoxal phosphate, 0.5 mM TCEP) followed by SEC using a HiLoad 26/60 Superdex200 column in SEC buffer (25 mM HEPES pH7.5, 150 mM sodium chloride, 0.15 mM pyridoxal phosphate, 0.5 mM TCEP). Protein concentration was measured and calculated using the absorbance at 280 nm. Extracts were diluted 1 in 4 and 10 uL was analysed by SDS PAGE.
(§2) To measure BIO3-BIO1 mutant enzyme activity in the presence of herbicide, herbicides were incubated with 20 μL of enzyme mix (100 mM EPPS pH 8.6, 0.1 mM pyridoxal phosphate, 0.1 mg/mL BSA, 50 nM BIO3-BIO1 enzyme) for 10 minutes at 20° C. in a well of a 96-well half-area black plate, followed by the addition of 20 μL of substrate mix (final concentration of 100 mM EPPS pH 8.6, 0.1 mM pyridoxal phosphate, 0.1 mg/mL BSA, 100 μM spermidine, 20 μM KAPA, 100 mM NaCO3) and further incubation for 75 minutes at 20° C. The reaction was terminated by the addition of 50 μL of derivatisation mix (final concentration of 250 mM borate NaOH pH 9.4, 3.6 mM o-phthalaldehyde, 7 mM β-mercaptoethanol, 17% (v/v) ethanol, 3.6% (v/v) methanol). The fluorescent product produced by the reaction of DAPA with o-phthalaldehyde and 7 mM β-mercaptoethanol was measured at 470 nm after excitation at 410 nm.
(§3) For IC50 calculations, appropriate dose responses of compounds L, M, B, K and G were used. Calculated percentage inhibitions were then input into GraphPad Prism 7 and IC50s calculated using the non-linear regression (vs. normalised response) equation.

For experiment [3], the target named is T2, Arabidopsis thaliana BioDA variant enzymes (Arabidopsis thaliana, UniProt B0F481, C388D).
T2 construct: with the predicted N-terminal mitochondrial transit peptide removed; 6xHis-tag (N); thrombin cleavage site (N); made in house; host or cells: E. coli BL21 (DE3) bioA
T2 sequence (B0F481 24-833 C388D): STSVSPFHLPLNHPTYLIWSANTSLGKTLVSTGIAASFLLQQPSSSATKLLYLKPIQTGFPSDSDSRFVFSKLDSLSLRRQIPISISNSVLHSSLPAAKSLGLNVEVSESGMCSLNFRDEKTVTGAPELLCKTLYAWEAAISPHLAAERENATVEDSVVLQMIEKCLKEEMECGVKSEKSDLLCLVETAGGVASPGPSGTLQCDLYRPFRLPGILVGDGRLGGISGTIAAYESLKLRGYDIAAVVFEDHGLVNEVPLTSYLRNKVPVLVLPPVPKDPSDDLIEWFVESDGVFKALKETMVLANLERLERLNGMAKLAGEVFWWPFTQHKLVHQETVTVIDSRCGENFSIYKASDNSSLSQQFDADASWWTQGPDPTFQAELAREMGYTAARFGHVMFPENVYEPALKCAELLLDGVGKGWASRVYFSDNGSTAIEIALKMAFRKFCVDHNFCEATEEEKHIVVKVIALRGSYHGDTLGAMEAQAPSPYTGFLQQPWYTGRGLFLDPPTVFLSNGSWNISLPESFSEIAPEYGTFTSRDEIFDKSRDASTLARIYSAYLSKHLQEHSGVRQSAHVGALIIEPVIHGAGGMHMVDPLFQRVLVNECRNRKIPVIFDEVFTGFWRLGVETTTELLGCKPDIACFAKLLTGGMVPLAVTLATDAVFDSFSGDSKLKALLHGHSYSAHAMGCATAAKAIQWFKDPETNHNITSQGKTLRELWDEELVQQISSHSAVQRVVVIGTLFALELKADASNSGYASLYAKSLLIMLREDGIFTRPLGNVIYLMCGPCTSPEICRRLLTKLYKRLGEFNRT
The experiment is described as follows: biochemical. As to the method: as §1, §2, §3

Several values for one entry are separate records, joined by “and”; a condition that tells them apart may be missing. Equal entries are not always repeated.

As for `CCOC(=O)c1nn(-c2ccc3c(c2)OC(F)(F)C(F)(F)O3)c2cccc(C(C)=O)c2c1=O` [Compound A, ethyl 5-acetyl-4-oxo-1-(2,2,3,3-tetrafluoro-1,4-benzodioxin-6-yl)cinnoline-3-carboxylate], in experiment [1], the percentage of damage is 5% and 0% and 2%. On to `CC(O)C(N)CCCCC(=O)O.Cl` (centres unmarked) [Compound B, [5-carboxy-1-(1-hydroxyethyl)pentyl]ammonium chloride], for which the IC50 amounted to 2.81 µM in experiment [2] and 29.2 µM in experiment [3].

Regarding `CCn1c(Cn2ccc(C(F)(F)F)n2)cc(=O)c(C(=O)O)c1-c1ccc(Cl)c(Cl)c1` [Compound L, 2-(3,4-dichlorophenyl)-1-ethyl-4-oxo-6-[[3-(trifluoromethyl)pyrazol-1-yl]methyl]pyridine-3-carboxylic acid], the results for the IC50 in experiment [2] and in experiment [3] were 0.145 µM and 100 µM, respectively.

In general, IC50 refers to the point on the concentration scale where inhibition reaches its midpoint.

Source of the values: patent US20260226493A1, “HERBICIDE RESISTANT PLANTS” (SYNGENTA CROP PROTECTION AG, priority 2023, published 2026).
